Legend:
HEP G2 cells = experiment: Inhibition of cholesterol biosynthesis in cell cultures (HEP G2 cells), incorporation of 14C-sodium acetate in cholesterol; type: cell-based; conditions: for IC50 / IC70: Homo sapiens, HepG2, sodium salts, test compounds corrected by deviation of mevinolin sodium from its mean value; for IC50: read-out: IC50 (concentration necessary for a 50% inhibition); for IC70: read-out: IC70 (concentration necessary for a 70% inhibition); for Relative potency in % / Relative potency in % (value in parentheses): mevinolin sodium = 100; for Relative potency in %: from IC50; for Relative potency in % (value in parentheses): corresponds to IC70
Protocol: 2) Inhibition of cholesterol biosynthesis in cell cultures (EEP G2 cells)
Determination of the inhibition of the incorporation of ^14 C-sodium acetate in cholesterol
Monolayers of HEP G2 cells in lipoprotein-free medium were preincubated with various concentrations of the sodium salts of the dihydroxycarboxylic acids of the formula II for 1 hour. After adding ^14 C-labeled sodium acetate, the incubation was continued for 3 hours. Tritium-labeled cholesterol was added as an internal standard and an aliquot of the cells was subjected to alkaline hydrolysis. The lipids were extracted using chloroform/methanol 2: 1. After adding carrier cholesterol, the lipid mixture was preparatively separated on TLC plates using chloroform/acetone 9: 1. The cholesterol zone was made visible by staining with iodine vapor, additionally detected using a TLC radio scanner and then scraped off. The amount of ^14 C-cholesterol formed was determined scintigraphically and related to mg of cell protein. The same procedure was carried out with cells from the Bame culture without preincubation with a test compound (so-called "solvent control"). The potency of the test compounds was determined by comparison of the biosynthesized ^14 C-cholesterol in test runs and in "solvent control".

serum total cholesterol = experiment: Hypocholesterolemic activity in rabbits after p.o. administration; type: in vivo, male white New Zealand rabbits; conditions: for Serum total cholesterol, % change compared to control group: rabbit p.o., 5 mg/kg per day (constant)
Protocol: 4) Hypocholesterolemic activity in rabbits after p.o. administration
Normolipemic male white New Zealand rabbits, body weight 3-3.5 kg, were divided into groups of 5 animals. The groups in each case received one of the test compounds (sodium salts of the compounds of the formula II), suspended in 1% aqueous methylcellulose (®Tylose MH 300), 5.10 or 20 mg/kg/day daily in the morning by stomach tube. The animals of the control groups received only Tylose MH 300. Every 3-4 days samples of venous blood were taken from all animals 20 hours after the oral administration. The serum total cholesterol was determined enzymatically in these samples using the test combination of Boehringer Mannheim (CHOD-PAP high performance method). The serum cholesterol level of the treated animals was compared with that of the control groups. A "discharge phase" followed the 20-day "treatment phase", in which the change in the serum cholesterol level was further monitored.

LDL = experiment: Inhibition of Cu2+-catalyzed LDL oxidation in vitro; type: biochemical, porcine; conditions: 5 μM Cu2+, 2 hours at 37° C.; for IC50: fluorescence 430 nm, read-out: IC50 (50% inhibition of LDL oxidation)
Protocol: 6) Inhibition of Cu^2+ -catalyzed LDL oxidation in vitro LDL was isolated from porcine plasma which contained EDTA (1 mg/ml) by ultracentrifugation in salt solutions of NaCl/NaBr between the densities 1.019 and 1.063 g/ml (cf. R. J. Havel et al., J. Clin. Invest. 43, 1345 (1955)). LDL was then dialyzed against phosphate-buffered saline (160 mM NaCl, 10 mM NaH2 PO4), pH 7.4 and stored under nitrogen at 4° C. Before the oxidation process, the LDL fractions were diluted to a final protein concentration of 0.1 mg/ml using phosphate-buffered saline and 2.5 ml aliquot parts were pre-incubated under nitrogen with the test compounds (25 μl of ethanolic solution) for 1 hour at 37° C. (cf. McLean et al., Biochemistry 1989, 28, 321). For the Cu^2+ -catalyzed oxidation of LDL, 12.5 μl of a 1 mM CuSO4 solution were added to each sample, a 5 μM Cu^2+ concentration resulting. The incubation was carried out for 2 hours at 37° C. and in an air atmosphere. The fluorescence intensity was measured at 430 nm (excitation wavelength 365 nm) (cf. Steinbrecher, U. P., J. Biol. Chem. 1987, 262, 3603). […] In addition, the inhibition using a 10^-5 N concentration of the test compound is indicated in %.

HMG-CoA reductase = target: T1, HMG-CoA reductase (Rattus norvegicus, UniProt P51639); experiment: Inhibition of HMG-CoA reductase activity in solubilized enzyme preparations from rat liver microsomes; type: biochemical; conditions: sodium salts of the dihydroxycarboxylic acids; mean of 3 parallel samples; read-out: IC50 (molar concentration necessary for a 50% inhibition)
T1 construct: solubilized enzyme preparations from liver microsomes of rats; from tissue; host or cells: rat liver microsomes (cholestyramine-induced rats), solubilized
T1 sequence (P51639 1-887): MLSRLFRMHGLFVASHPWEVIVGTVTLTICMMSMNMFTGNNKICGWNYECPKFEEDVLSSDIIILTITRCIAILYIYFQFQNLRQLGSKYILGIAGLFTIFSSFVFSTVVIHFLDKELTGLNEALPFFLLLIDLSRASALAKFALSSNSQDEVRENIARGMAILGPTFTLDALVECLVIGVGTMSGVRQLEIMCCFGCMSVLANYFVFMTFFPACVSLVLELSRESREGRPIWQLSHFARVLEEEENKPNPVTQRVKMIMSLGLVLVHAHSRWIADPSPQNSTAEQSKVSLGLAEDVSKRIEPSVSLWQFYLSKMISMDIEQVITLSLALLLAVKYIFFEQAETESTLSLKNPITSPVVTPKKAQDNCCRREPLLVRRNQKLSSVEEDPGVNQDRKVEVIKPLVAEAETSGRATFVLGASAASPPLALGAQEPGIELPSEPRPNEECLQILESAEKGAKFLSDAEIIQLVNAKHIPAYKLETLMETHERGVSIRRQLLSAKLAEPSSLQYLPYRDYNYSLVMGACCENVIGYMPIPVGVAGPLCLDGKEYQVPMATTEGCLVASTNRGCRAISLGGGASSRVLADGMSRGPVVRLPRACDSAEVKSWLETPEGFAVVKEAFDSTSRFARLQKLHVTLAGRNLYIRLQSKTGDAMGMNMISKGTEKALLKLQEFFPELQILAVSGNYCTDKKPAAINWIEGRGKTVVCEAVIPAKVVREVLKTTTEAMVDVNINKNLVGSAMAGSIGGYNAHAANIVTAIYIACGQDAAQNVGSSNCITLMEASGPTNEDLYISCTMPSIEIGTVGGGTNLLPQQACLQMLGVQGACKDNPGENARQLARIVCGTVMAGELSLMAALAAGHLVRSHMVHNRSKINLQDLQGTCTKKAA
Protocol: 1) Inhibition of HKG-CoA reductase activity in solubilized enzyme preparations from rat liver microsomes
HMG-CoA reductase activity was measured on solubilized enzyme preparations from liver microsomes of rats which had been induced by conversion into the day/night rhythm using cholestyramine (®Cuemid). (S,R)^14 C-HMG-CoA was used as a substrate, and the concentration of NADPH was maintained during the incubation by a regenerating system. The separation of ^14 C-mevalonate from substrate and other products (for example ^14 C-HMG) was carried out by column elution, the elution profile of each individual sample being determined. The regular addition of ^3 H-mevalonate was avoided as the determination gives the data relative to the inhibitory action. The enzyme-free control, the enzyme-containing normal mixture (=100%) and those containing preparation additives were in each case treated together in one series of experiments. The sodium salts of the dihydroxycarboxylic acids of the formula II were always employed as the preparation in this test. Each individual value was formed as the mean value of 3 parallel samples. The significance of the mean value differences between preparation-free and preparation-containing samples was evaluated by the t-test.

[1] = system: microsomal lipid peroxidation; experiment: Inhibition of microsomal lipid peroxidation (in vitro); type: biochemical; conditions: for IC50: microsomes, read-out: IC50 (50% inhibition of lipid peroxidation)
Protocol: 5) Inhibition of microsomal lipid peroxidation (in vitro)
The inhibition of lipid peroxidation was measured under the experimental conditions described by H. Wafers and H. Sies, Eur. J. Biochem. 174, 353-357 (1988). The microsomes were obtained according to the literature cited therein. IC50 denotes the concentration of the test compound in moles per liter which causes a 50% inhibition of lipid peroxidation.

| SMILES | IC50 (HEP G2 cells) | IC50 (LDL) | IC50 (HMG-CoA reductase) | IC70 (HEP G2 cells) | Relative potency in % (HEP G2 cells) | Relative potency in % (value in parentheses) (HEP G2 cells) | onset of action / maximum action (serum total cholesterol; Table 4) | plasma cholesterol decrease compared with mevinolin and compound C (serum total cholesterol; Table 4, lower dosage) | Serum total cholesterol, % change compared to control group (serum total cholesterol; administration 3) | Serum total cholesterol, % change compared to control group (serum total cholesterol; administration 10) | Serum total cholesterol, % change compared to control group (serum total cholesterol; administration 14) | Serum total cholesterol, % change compared to control group (serum total cholesterol; administration 17) | Serum total cholesterol, % change compared to control group (serum total cholesterol; administration 20) | Serum total cholesterol, % change compared to control group (serum total cholesterol; discharge phase 3) | Serum total cholesterol, % change compared to control group (serum total cholesterol; discharge phase 6) | Serum total cholesterol, % change compared to control group (serum total cholesterol; discharge phase 11) | Inhibition at 10^-5 M (LDL) | Inhibition at 10^-5 mol/l [1] | IC50 [1] |
| --- | --- | --- | --- | --- | --- | --- | --- | --- | --- | --- | --- | --- | --- | --- | --- | --- | --- | --- | --- |
| CC(C)c1c(O)c(C(C)C)c(C(C)C)c(OC[C@@H](O)C[C@@H](O)CC(=O)O)c1-c1ccc(F)cc1 [Example 8] | 4 nM | 1100 nM | 2 nM | – | 1250% | – | – | – | – | – | – | – | – | – | – | – | – | 27% | – |
| CC(C)c1c(OC[C@@H](O)C[C@@H](O)CC(=O)O)c(C(C)C)c(C(C)C)c(O)c1-c1ccc(F)cc1 [Example 9] | 7.5 nM | 6000 nM | 4 nM | 12 nM | 667% | 1250% | – | – | -8% | -12% | -15% | – | – | -4% | -4% | +6% | – | < 10% | – |
| CC(=O)Oc1c(C(C)C)c(-c2ccc(F)cc2)c(O)c(C(C)C)c1C(C)C [Process Example 25, 2,3,5-Triisopropyl-4-acetoxy-6-(p-fluorophenyl)phenol] | – | 150 nM | – | – | – | – | – | – | – | – | – | – | – | – | – | – | – | 83% | 4800 nM |

Further lines, with some results ahead:

| IC50 (HEP G2 cells) | IC50 (LDL) | IC50 (HMG-CoA reductase) | SMILES | IC70 (HEP G2 cells) | Relative potency in % (HEP G2 cells) | Relative potency in % (value in parentheses) (HEP G2 cells) | onset of action / maximum action (serum total cholesterol; Table 4) | plasma cholesterol decrease compared with mevinolin and compound C (serum total cholesterol; Table 4, lower dosage) | Serum total cholesterol, % change compared to control group (serum total cholesterol; administration 3) | Serum total cholesterol, % change compared to control group (serum total cholesterol; administration 10) | Serum total cholesterol, % change compared to control group (serum total cholesterol; administration 14) | Serum total cholesterol, % change compared to control group (serum total cholesterol; administration 17) | Serum total cholesterol, % change compared to control group (serum total cholesterol; administration 20) | Serum total cholesterol, % change compared to control group (serum total cholesterol; discharge phase 3) | Serum total cholesterol, % change compared to control group (serum total cholesterol; discharge phase 6) | Serum total cholesterol, % change compared to control group (serum total cholesterol; discharge phase 11) | Inhibition at 10^-5 M (LDL) | Inhibition at 10^-5 mol/l [1] | IC50 [1] |
| --- | --- | --- | --- | --- | --- | --- | --- | --- | --- | --- | --- | --- | --- | --- | --- | --- | --- | --- | --- |
| 4.3 nM | > 10000 nM | 6 nM | CC(C)c1cc(Sc2ccc(F)cc2)cc(-c2ccc(F)cc2)c1OC[C@@H](O)C[C@@H](O)CC(=O)O [Example 1] | ~0.8 nM | 1163% | 18750% | commences very early on. The maximum action was virtually achieved even in the first measurement after 3 days of treatment | substantially greater plasma cholesterol decrease than mevinolin or the compound C in spite of lower dosage | -44% | -46% | -43% | -42% | -48% | -22% | -17% | -6% | 41% | < 10% | – |
| – | > 10000 nM | – | CC(C)c1cc(Sc2ccc(F)cc2)cc(-c2ccc(F)cc2)c1OC[C@@H]1C[C@@H](O)CC(=O)O1 [Example 10, 4(R)-Hydroxy-6(S)-[(2-p-fluorophenyl-4-p-fluorophenylthio-6-isopropyl)phenoxymethyl]-3,4,5,6-tetrahydro-2H-pyran-2-one] | – | – | – | – | – | – | – | – | – | – | – | – | – | 23% | – | – |
| – | 1000 nM | – | CC(C)c1cc(Sc2ccc(F)cc2)cc(-c2ccc(F)cc2)c1O [Process Example 6, 2-(p-Fluorophenyl)-4-(p-fluorophenylthio)-6-isopropylphenol] | – | – | – | – | – | – | – | – | – | – | – | – | – | – | 95% | 3000 nM |

— patent US5294724A, “4-hydroxytetrahydropyran-2-ones and the corresponding dihydroxycarboxylic acid derivatives, salts and esters and a process for their preparation” (priority 1989, dated 1994)
